Reference: patent US6767900B2, “Phosphonate nucleotide compound” (Mitsubishi Pharma Corporation, priority 2000, dated 2004)

Key:
HB611 cells = assay: Cytotoxicity to HB611 cells; type: cell-based, human
Procedure: The inhibitory effect of the compound of the present invention against the growth of an HBV was measured by a known method (K. Ueda, et al., Virology, 169, 213-216 (1989)). 2×10^4 of HB611 cells (recombinant human hepatoma cells producing HBV) were cultured at 37° C. in Dulbecco ME medium containing 10% fetal bovine serum, streptomycin (100 μg/ml), penicillin (100IU/ml) and Genetisin (trade name, antibiotic by LifeTechnologies) (0.2 mg/ml). At the second day and the fifth day of culturing, the medium was replaced by a fresh medium, and then at the eighth day, the eleventh day and the fourteenth day of culturing, the medium was replaced with a medium containing 0.005 to 100 μM (final concentration) of the test compound, and at the seventeenth day of culturing, DNA of the cells were collected. […] Moreover, a concentration of the compounds required to kill 50% of HB611 cells was determined.
Each compound number in the table corresponds to the compound number in Table 1. For reference, the results of the evaluation of the compounds described in EP785208 are also shown.

Hepatitis B Virus (HBV) = assay: Inhibitory effect against growth of hepatitis B virus (HBV-DNA synthesis in HB611 cells, Southern blotting); type: cell-based; details: read-out: 50% inhibition concentration against HBV-DNA synthesis; HB611 cells (recombinant human hepatoma cells producing HBV); test compound 0.005 to 100 μM from day 8; DNA collected day 17

Nc1nc(Sc2ccc(O)cc2)c2ncn(CCOCP(=O)(OCC(F)(F)F)OCC(F)(F)F)c2n1 [Compound No. 3, 2-amino-9-[2-(phosphonomethoxy)ethyl]-6-(4-hydroxyphenylthio)purine bis(2,2,2-trifluoroethyl) ester]
Cytotoxic concentration required to kill 50% of HB611 cells (HB611 cells): >1,000 μM | IC50 (Hepatitis B Virus (HBV)): 50 nM
